Source: article PMC10744608, “Simplified Synthesis of Renieramycin T Derivatives to Target Cancer Stem Cells via β-Catenin Proteasomal Degradation in Human Lung Cancer” (Marine Drugs, 2023)

Assays:
[1] = test system: human dermal papilla cells (DP); assay: MTT cell viability assay, normal cells; format: cell-based; conditions: for IC50: DP normal cells, 24 h treatment, MTT
[2] = test system: CSC spheroids of A549, H23, and H292 cells; assay: 3D CSC spheroid formation with immunofluorescence; format: cell-based, human; conditions: 50 nM; for levels of CD133, CD44, and OCT4 in CSC spheroids: 24 h, immunofluorescence
Procedure: A three-dimensional (3D) spheroid was employed to generate the spheroids containing CSC subpopulations from lung cancer cells. For CSC-rich population establishment, the spheroid culture assay used in this study was slightly modified from a previously described method. Lung cancer cells, specifically NSCLC cells (A549, H23, and H292), were seeded onto a 24-well ultra-low attachment plate, with approximately density of 2.5 × 10^3 cells per well in a medium with a 1% FBS and Nutristem mix. The primary spheroids were allowed to form for 7 days. Every 2 days, fresh medium with 1% FBS and Nutristem mix was replenished. On day 7 of primary spheroid culture, primary spheroids were resuspended into single cells using trypsin, and again 2.5 × 10^3 cells/well were seeded into a 24-well ultra-low attachment plate. Secondary spheroids were allowed to form for 10 days. After 10 days, the secondary spheroids were treated with 50 nM concentration DH_32 for 24 h treatment. The spheroids that had undergone treatment were retrieved through centrifugation at 1000× g for 30 s and then rinsed with PBS. The spheroids were fixed with 4% paraformaldehyde in a 50 μL PBS solution for 20 min at room temperature, and then they were made permeable by treating them with 0.1% Triton X in PBS for 5 min at room temperature. The spheroids were exposed to a mixture of 5% FBS and 2% BSA in PBS for 1 h at room temperature to prevent non-specific protein interactions. Subsequently, the spheroids were incubated with primary antibodies (CD133, CD44, and OCT4) at a 1:250 dilution in a 30 μL PBS solution containing 2.5% FBS and 1% BSA, and this incubation took place overnight at 4 °C. On the subsequent day, the spheroids were rinsed with PBS and then exposed to secondary antibodies (Alexa Fluor 594-conjugated goat anti-rabbit IgG (H+L) and Alexa Fluor 488-conjugated goat anti-mouse IgG (H+L)) at a 1:500 dilution in a 30 μL PBS solution containing 2.5% FBS and 1% BSA at room temperature for 1 h 30 min. These spheroids were subjected to staining with Hoechst 33342 (Sigma, St. Louis, MO, USA) at a concentration of 10 μg/mL for a duration of 15 min at room temperature. Subsequently, the fluorescence signals were observed using a fluorescence microscope (Olympus IX 51 with DP70; Olympus America Inc., Center Valley, PA, USA). The intensity of fluorescence was quantified using Image J software. NSCLC spheroids treated with RT at 50 nM and cisplatin at 50 nM served as the positive control.

[3] = test system: β-catenin in A549, H292, and H23 cells; assay: Immunofluorescence of β-catenin; format: cell-based, human; conditions: 24 h; DH_32 0–100 nM, RT 25 nM
Procedure: A549, H23, and H292 NSCLC cells were seeded at a concentration of 1 × 10^4 cells per well in 96-well plates. The cells were exposed to different concentrations of DH_32 (0, 25, 50, and 100 nM) for 24 h, after which the medium was removed. Following that, the cells were subjected to fixation with 4% paraformaldehyde for 15 min. The cells were permeabilization with 0.5% Triton-X for 5 min, followed by the blocking of non-specific proteins with 10% FBS in 0.1% Triton-X PBS for 1 h at room temperature. The cells were exposed to a 1:400 dilution of primary antibodies (CD133, CD44, ALDH1A1, OCT4, NANOG, SOX2, and β-catenin) and incubated at 4 °C overnight. On the subsequent day, the cells were treated with a 1:500 dilution of the following secondary antibodies: Alexa Fluor 594-conjugated goat anti-rabbit IgG (H+L) (Invitrogen) and Alexa Fluor 488-conjugated goat anti-mouse IgG (H+L) (Invitrogen). Simultaneously, the localization of nuclei was stained with Hoechst 33342 for 1 h at room temperature. The cells were rinsed with PBS and then covered with 50% glycerol. The images were captured by a fluorescence microscope (Olympus IX 51 with DP70; Olympus America Inc., Center valley, PA, USA). The fluorescence intensity was measured by Image J software. RT acted as the positive control for this experiment.

[4] = test system: A549, H23, and H292 cells; assay: Western blot of CSC markers; format: cell-based, human; conditions: 25, 50, and 100 nM, 24 h
Procedure: The protein expression levels in NSCLC cells were assessed through Western blot analysis. A549, H23, and H292 cells were seeded at a density of 4 × 10^5 cells per well in 6-well cell culture plates. These cells were subjected to treatments with DH_32 at concentrations of 0, 25, 50, and 100 nM for 24 h at 37 °C.
Following treatment, the cells were collected using cold PBS and incubated on ice with a lysis buffer. The lysis buffer contained 50 mM 4-(2-hydroxyethyl)-1-piperazineethanesulfonic acid (pH 7.5), 150 mM NaCl, 5 mM EDTA, 1% Triton X-100, 1 mM phenylmethylsufonyl fluoride, and 2 μg/mL pepstatin A (cat no: 9803, Cell Signaling), along with complete protease inhibitor cocktail tablets provided in EASYpack (Roche, cat no: 04693116001). The incubation occurred for 40 min on ice, followed by centrifugation at 12,000× g at 4 °C for 15 min. Cell lysates were collected, and the protein content was quantified using the bicinchoninic acid (BCA) protein kit from Thermo-Fisher Scientific, Rockford, IL, USA. […] A chemiluminescent substrate (Supersignal West Pico; Pierce, Rockford, IL, USA) was applied to detect complex reactivity, and the signal intensity was quantified through densitometry. Protein intensity was analyzed by using ImageJ software (Image J 1.52a, Rasband, W., National Institutes of Health, Bethesda, MD, USA). […]

Row | Compound | selectivity index (SI) ([1]; DP cells versus A549) | selectivity index (SI) ([1]; DP cells versus H23) | selectivity index (SI) ([1]; DP cells versus H292) | IC50 ([1]; Homo sapiens, Human dermal papilla cell) | size of spheroid formations [2] | levels of CD133, CD44, and OCT4 in CSC spheroids [2] | β-catenin level by immunofluorescence [3] | CSC markers CD133, CD44, OCT4, and ALDH1A1 by western blot [4] | IC50 [1]
1 | COC1=C(C)C(=O)C2=C(C1=O)[C@@H]1CN(Cc3ccc4ccccc4c3)[C@@H](C#N)[C@H](C2)N1C [DH_32, (1R,4R,5S)-9-methoxy-8,11-dimethyl-3-(naphthalen-2-ylmethyl)-7,10-dioxo-1,2,3,4,5,6,7,10-octahydro-1,5-epiminobenzo[d]azocine-4-carbonitrile] | 8.42 | 16.51 | 23.40 | 34.2 ± 1.22 µM | decreased | dramatic decrease | decrease in the fluorescence signal of β-catenin | dramatic decrease | –
2 | CC=C(C)C(=O)OCC1c2c(c(O)c(C)c3c2OCO3)CC2C3C4=C(CC(C(C#N)N12)N3C)C(=O)C(C)=C(OC)C4=O (centres unmarked) [RT, Renieramycin T] | – | – | – | – | – | lesser effects | unaltered level of β-catenin | – | 13.7 ± 0.33 µM
